Data on 3 compounds can be found in patent US10112933B2, “Methods and compositions for treatment of fibrosis” (Baylor College of Medicine, priority 2013, dated 2018).

In the assay the test system is MEF/GFP-Stat3α cells. The experiment in a line: HTFM cytoplasmic-to-nuclear translocation of GFP-Stat3α. The format is cell-based, murine. The note with it: for IC50: Mus musculus, 0.5 h, MEF/GFP-Stat3α, IL-6 200 ng/ml and IL-6sR 250 ng/ml 30 min, read-out: HTM IC50 (ligand-mediated nuclear translocation of GFP-Stat3α). The protocol:
Coverslips were examined by confocal fluorescent microscopy using filters to detect GFP (column one), DAPI (column two) or both (merge; column three). In panel B, MEF-GFP-Stat3 cells were grown in 96-well plates with optical glass bottoms and pretreated with the indicated compound at the indicated concentrations in quadruplicate for 1 hour then stimulated with IL-6 (200 ng/ml) and IL-6sR (250 ng/ml) for 30 minutes. Cells were fixed and the plates were examined by high-throughput microscopy to determine the fluorescence intensity in the nucleus (FLIN) and the % ΔFLINMax was calculated as described in Example 1. Data shown are mean±SD and are representative of 2 or more studies. Best-fit curves were generated based on 4 Parameter Logistic Model/Dose Response One Site/XLfit 4.2, IDBS and were used to calculate IC50 (Table 1).
Confocal and high-throughput fluorescence microscopy. Confocal and highthroughput fluorescence microscopy (HTFM) of MEF/GFP-Stat3α cells were performed as described (Huang et al., 2007). Briefly, for confocal fluorescence microscopy, cells were grown in 6-well plates containing a cover slip. For HTFM, cells were seeded into 96-well CC3 plates at a density of 5,000 cells/well using an automated plating system. Cells were cultured under standard conditions until 85-90% confluent. Cells were pretreated with compound for 1 hour at 37° C. then stimulated with IL-6 (200 ng/ml) and IL-6sR (250 ng/ml) for 30 minutes. Cells were fixed with 4% formaldehyde in PEM Buffer (80 mM Potassium PIPES, pH 6.8, 5 mM EGTA pH 7.0, 2 mM MgCl2) for 30 minutes at 4° C., quenched in 1 mg/ml of NaBH4 (Sigma) in PEM buffer and counterstained for 1 min in 4,6-diamidino-2-phenylindole (DAPI; Sigma; 1 mg/ml) in PEM buffer. Cover slips were examined by confocal fluorescent microscopy. Plates were analyzed by automated HTFM using the Cell Lab IC Image Cytometer (IC100) platform and CytoshopVersion 2.1 analysis software (Beckman Coulter). Nuclear translocation is quantified by using the fraction localized in the nucleus (FLIN) measurement (Sharp et al., 2006).
Following its phosphorylation on Y705, Stat3 undergoes a change in conformation from head-to-head dimerization mediated through its N-terminal oligomerization domain to tail-to-tail dimerization mediated by reciprocal SH2/pY705-peptide ligand interactions. This conformational change is followed by nuclear accumulation. Compounds that targeted SH2/pY-peptide ligand interactions of Stat3 would be expected to inhibit nuclear accumulation of Stat3. […]
EXP IIB. High throughput fluorescence microscopy (HTFM), cytoplasm-to-nucleus translocation inhibition assays. […] Plates are analyzed by automated HTFM using the Cell Lab IC Image Cytometer (IC100) platform and CytoshopVersion 2.1 analysis software (Beckman Coulter). […]

Take `O=C(O)c1ccc(C=CC(=O)c2ccc3c(c2)OCCO3)cc1` [Cpd3, 4-[3-(2,3-dihydro-1,4-benzodioxin-6-yl)-3-oxo-1-propen-1-yl]benzoic acid]: the concentration for half-maximal inhibition (IC50) stood at 131 µM.
On the same count and under the same terms, the value for `CCOc1cc(C=C2C(=O)c3ccccc3C2=O)cc(Cl)c1OCc1cccc(C(=O)O)c1` [Cpd3-2, 3-({2-chloro-4-[(1,3-dioxo-1,3-dihydro-2H-inden-2-ylidene)methyl]-6-ethoxyphenoxy}methyl)benzoic acid] was 150 µM.
On to `CCN1C(=O)C(=Cc2ccc(-c3cc(C(=O)O)ccc3Cl)o2)C(=O)N(CC)C1=S` [Cpd30-12, 4-chloro-3-{5-[(1,3-diethyl-4,6-dioxo-2-thioxotetrahydro-5(2H)-pyrimidinylidene)methyl]-2-furyl}benzoic acid], for which the IC50 is more than 300 µM. Also, the “blocked ligand-mediated nuclear translocation of GFP-Stat3” value (MEF/GFP-Stat3α cells) is reported as “not”.

As usually defined, the IC50 is the concentration at which inhibition is half-maximal.
